We go through 20 compounds from patent publication US20010036944A1, “Certain benzothiazine dioxide endothelin antagonists and processes for their preparation” (priority 1997, published 2001).

Counter-ions that a name gives are not always drawn. Bounds are passed on as bounds.

The target in test [1] is T1, recombinant human ETAR (HETA) (Homo sapiens, UniProt P25101).
T1 construct: expressed in transfected cells; host or cells: Ltk- cells (membrane preparation)
T1 sequence (P25101 21-427): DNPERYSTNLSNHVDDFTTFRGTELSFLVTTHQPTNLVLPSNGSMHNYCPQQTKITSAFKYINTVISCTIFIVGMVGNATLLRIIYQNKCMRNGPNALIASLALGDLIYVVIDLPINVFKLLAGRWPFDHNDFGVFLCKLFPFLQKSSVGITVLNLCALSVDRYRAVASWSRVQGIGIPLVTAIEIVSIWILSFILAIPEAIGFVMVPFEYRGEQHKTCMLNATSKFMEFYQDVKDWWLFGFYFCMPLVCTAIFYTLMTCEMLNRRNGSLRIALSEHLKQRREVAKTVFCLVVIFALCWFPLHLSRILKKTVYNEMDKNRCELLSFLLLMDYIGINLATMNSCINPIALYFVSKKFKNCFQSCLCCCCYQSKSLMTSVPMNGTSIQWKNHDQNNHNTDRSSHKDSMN
The test is described as follows: Radioligand binding, [125I]ET-1 to membranes of Ltk- cells expressing recombinant human ETAR (HETA). As to conditions: [125I]ET-1 binding, human ETA, Ltk- cell membranes; read-out: HETA (IC50). As to the method:
(§1) The following cultured cells were used in binding experiments: Ltk-cells expressing recombinant human ETAR (HETA), and CHOKI cells expressing recombinant human ETBR (HETB).
(§2) Membranes were prepared from cultured cells by lysing cells in cold lysis buffer (5 mM HEPES, 2 mM EDTA, pH 7.4) and homogenizing with a Dounce “A” homogenizer. The homogenate was centrifuged at 30,000×g for 20 minutes at […]. Membrane pellets were suspended in cold buffer containing 20 mM Tris, 2 mM EDTA, 200 μM Pefabloc, 10 μM phosphoramidon, 10 μM leupeptin, 1 μM pepstatin at pH 7.4 and frozen at […] until use. Membranes were thawed and homogenized with a Brinkmann Polytron then diluted in tissue buffer containing 20 mM Tris, 2 mM EDTA, 200 μM Pefabloc, and 100 μM bacitracin (pH 7.4). Radioligand and competing ligands were prepared in binding buffer containing 20 mM Tris, 2 mM EDTA, and 0.1% BSA.
(§3) The assay was terminated by filtration over Whatman GF/B filters which were presoaked with 50 mM Tris, pH 7.4 containing 0.2% BSA and 100 μM bacitracin. Nonspecific binding was defined as binding in the presence of 100 nM ET-1.

The target of test [2] is T2, recombinant human ETBR (HETB) (Homo sapiens, UniProt P24530).
T2 construct: expressed in transfected cells; host or cells: CHOKI (CHO-K1) cells (membrane preparation)
T2 sequence (P24530 27-442): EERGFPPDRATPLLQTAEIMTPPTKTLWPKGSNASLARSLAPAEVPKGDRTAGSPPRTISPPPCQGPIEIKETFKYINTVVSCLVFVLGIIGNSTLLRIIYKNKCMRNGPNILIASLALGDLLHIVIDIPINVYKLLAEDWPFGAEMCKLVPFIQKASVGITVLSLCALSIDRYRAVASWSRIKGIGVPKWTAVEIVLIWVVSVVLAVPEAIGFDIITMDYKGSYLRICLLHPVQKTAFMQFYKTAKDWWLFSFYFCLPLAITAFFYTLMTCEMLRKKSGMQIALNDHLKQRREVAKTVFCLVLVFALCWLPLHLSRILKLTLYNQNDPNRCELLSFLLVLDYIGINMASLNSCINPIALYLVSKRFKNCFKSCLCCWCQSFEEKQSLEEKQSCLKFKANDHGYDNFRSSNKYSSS
The test is described as follows: Radioligand binding, [125I]ET-1 to membranes of CHOKI cells expressing recombinant human ETBR (HETB). To be noted: [125I]ET-1 binding, human ETB, CHOKI cell membranes. The protocol:
as §1, §2, §3

In test [3] the test system is ETA, rabbit femoral artery. As to the kind of experiment: Antagonism of ET-1 stimulated vasoconstriction (VERAA) in the rabbit femoral artery (ETA). As to conditions: ET-1 stimulated vasoconstriction, rabbit femoral artery. An excerpt:
In Vitro Antagonism of ET-1 Stimulated Vasoconstriction (VERAA) in the Rabbit Femoral Arterv (ETA) and Sarafotoxin 6C Stimulated Vasoconstriction in the Rabbit Pulmonarv Artery (ETB)
Male New Zealand rabbits were killed by cervical dislocation and exsanguination. Femoral and pulmonary arteries were isolated, cleaned of connective tissue, and cut into 4mm rings. The endothelium was denuded by placing the rings over hypodermic tubing (32 gauge for femoral rings and 28 gauge for pulmonary rings, Small Parts, Inc., Miami, Fla.) and gently rolling them. Denuded rings were mounted in 20 mL organ baths containing Krebsbicarbonate buffer (composition in mM: NaCl, 118.2; NaHCO3, 24.8; KCl, 4.6; MgSO4 7H2O, 1.2; KH2PO4, 1.2; CaCl2 2H2O; CaNa2 EDTA, 0.026;, dextrose, 10.0), that was maintained at 37° C. and gassed continuously with 5% CO2 in oxygen (pH 7.4). Resting tension was adjusted to 3.0 g for femoral and 4.0 g pulmonary arteries; the rings were left for 90 minutes to equilibrate. Vascular rings were tested for lack of functional endothelium (ie, lack of an endotheliumdependent relaxation response to carbachol ([…]) in norepinephrine ([…]) contracted rings. Agonist peptides, ET-1 -(femoral), and S6c (pulmonary), were cumulatively added at 10-minute intervals. The ET antagonists were added 30 minutes prior to adding the agonist.

On to `O=C(O)C1=C(c2ccc3c(c2)OCO3)c2ccccc2S(=O)(=O)N1c1ccc(Cl)cc1Cl` [Example 22], for which the IC50 came to 50 nM in test [1] and 13000 nM in test [2].

As to `O=C(O)C1=C(c2ccc3c(c2)OCO3)c2ccccc2S(=O)(=O)N1c1ccccc1C(F)(F)F` [Example 11, 4-Benzo[1,3]dioxol-5-yl-1,1-dioxo-2-(2-trifluoromethyl-phenyl)-1,2-dihydro-1λ^6-benzo[e][1,2]thiazine-3-carboxylic acid], the IC50 in test [1] was 11 nM; in test [2], 11000 nM. Further, the “VERAA (pA2)” value in test [3] was found to be 6.6.

In the case of `O=C(O)C1=C(c2ccc3c(c2)OCO3)c2ccccc2S(=O)(=O)N1c1ccccc1-n1cccc1` [Example 27, 4-Benzo[1,3]dioxol-5-yl-1,1-dioxo-2-(2-2-pyrrol-1-ylphenyl)-1,2-dihydro-1λ^6-benzo[e][12]thiazine-3-carboxylic acid], the IC50 in test [1] is 40 nM; in test [2] it was 19000 nM.

For the compound “4-(6-Methoxybenzo[1,3]dioxol-5-yl)-1,1-dioxo-2-(2-trifluoro-methyl-phenyl)-1,2-dihydro-1λ^6-benzo[e]r [1,2]thiazine-3-carboxylic acid [Example 30]”, the IC50 was 95 nM in test [1] and > 2500 nM in test [2].

With `COc1cc(C2=C(C(=O)O)N(c3ccccc3Cc3ccccc3)S(=O)(=O)c3ccccc32)cc2c1OCO2` [Example 5, 2-(2-Benzylphenyl)4-(7-methoxy-benzo[1,3]dioxo-5-yl)-1,1-dioxo-1,2-dihydro-1λ^6-benzo[e][1,2]thiazine-3-carboxylic acid], the IC50 in test [1] was found to be 4 nM; in test [2] it was 2000 nM.

On to `COc1cc(C2=C(C(=O)O)N(c3ccccc3C)S(=O)(=O)c3ccccc32)cc2c1OCO2` [Example 8, 4-(7-Methoxy-benzo[1,3]dioxol-5-yl)-1,1-dioxo-2o-tolyl-1,2-dihydro-1,6-benzo[e][1,2]-thiazine-3-carboxylic acid], for which the IC50 in test [1] is 8 nM; in test [2] it was 3900 nM. Besides, in test [3], the “VERAA (pA2)” value amounted to 6.5.

On to `O=C(O)C1=C(c2ccc3c(c2)OCO3)c2ccccc2S(=O)(=O)N1c1ccccc1F` [Example 19, 4-Benzo-[1,3]dioxol-5-yl-2-(2-fluorohenyl)-1,1-dioxo-1,2dihydro-1λ^6-benzo[e]rl[2]thiazine-3-carboxylic acid], for which the IC50 in test [1] was 110 nM; in test [2], > 25000 nM.

Turning to `CCc1ccccc1N1C(C(=O)O)=C(c2ccc3c(c2)OCO3)c2ccccc2S1(=O)=O` [Example 13, 4-Benzo [1,3]dioxol-5-yl-2-(2ethyl-phenyl)-1,1-dioxo-1,2-dihydro-1λ^6-benzo[e][1,2]thiazine-3-carboxylic acid], the IC50 was 23 nM in test [1] and > 2500 nM in test [2].

As to `O=C(O)C1=C(c2ccc3c(c2)OCO3)c2ccccc2S(=O)(=O)N1c1cccc(Cl)c1Cl` [Example 21, 4-Benzo-[1,3]dioxol-5-yl-2-(2,3-dichlorophenyl)1,1-dioxo-1,2dihydro1λ^6-benzo [e][1,2]thiazine-3-carboxylic acid], the IC50 in test [1] is 30 nM; in test [2], 13000 nM.

For `COc1cc(C2=C(C(=O)O)N(c3ccccc3Cl)S(=O)(=O)c3ccccc32)cc2c1OCO2` [Example 4, 2-(2-Chloro-phenyl)-4-(7-methoxy-benzo[1,3]dioxol-5-yl)-1,1-dioxo-1,2-dihydro-1λ^6-benzo[e][1,2]-thiazine-3-carboxylic acid], the IC50 in test [1] came to 3 nM; in test [2] it was 5600 nM.

On to `Cc1c(Cl)cccc1N1C(C(=O)O)=C(c2ccc3c(c2)OCO3)c2ccccc2S1(=O)=O` [Example 24], for which the IC50 stood at 30 nM in test [1] and 17000 nM in test [2].

For the compound `O=C(O)C1=C(c2ccc3c(c2)OCO3)c2ccccc2S(=O)(=O)N1c1ccccc1Cc1ccccc1` [Example 29, 4-Benzo[1,3]dioxol-5-yl-2-(2benzylphenyl)-1,1-dioxo-1,2-dihydro-1λ^6-benzo[e][1,2]thiazine-3-carboxylic acid], the figures for the IC50 in test [1] and in test [2] were 40 nM and > 2500 nM, respectively.

For the compound `COc1cc(C2=C(C(=O)O)N(c3ccccc3Br)S(=O)(=O)c3ccccc32)cc2c1OCO2` [Example 9, 2-(2-Bromo-phenyl)4-(7-methoxy-benzo[1,3]-dioxol-5-yl)-1,1 dioxo 1,2-dihydro-1λ^6-benzo[e][1,2]-thiazine-3-carboxylic acid monosodium salt], the IC50 in test [1] is 2 nM; in test [2], > 2500 nM. Moreover, the “VERAA (pA2)” value in test [3] came to 6.9.

For `COc1cc(OC)cc(C2=C(C(=O)O)N(c3ccccc3Br)S(=O)(=O)c3ccccc32)c1` [Example 3, 2-(2-Bromophenyl)-4-(3,5-dimethoxy-phenyl)-1,1-dioxo-1,2-dihydro-1 λ^6-benzo[e][1,2]thiazine-3-carboxylic acid], the IC50 is 3 nM in test [1] and > 2500 nM in test [2].

In the case of `CCCc1ccccc1N1C(C(=O)O)=C(c2ccc3c(c2)OCO3)c2ccccc2S1(=O)=O` [Example 14, 4-Benzo[1,3]dioxol-5-yl-2-(2-1,2-pyphenyl)-1,1-dioxo 1,2-dihydro-1λ^6-benzo[e][1,2]thiazine-3-carboxylic acid], the half-inhibitory concentration (IC50) is 35 nM in test [1] and > 2500 nM in test [2]. Moreover, the “VERAA (pA2)” value in test [3] turned out to be 5.8.

Regarding `COc1ccc(N2C(C(=O)O)=C(c3ccc4c(c3)OCO4)c3ccccc3S2(=O)=O)c(Cl)c1` [Example 23, 4-Benzo[1,3]dioxol-5-yl-2-(2-chloro-4-methoxyphenyl)-1,1-dioxo-1,2-dihydro-1λ^6-benzo[e][1,2]thiazine-3-carboxylic acid], the results for the IC50 in test [1] and in test [2] were 21 nM and 6200 nM, respectively.

Take `Cc1cccc(C)c1N1C(C(=O)O)=C(c2ccc3c(c2)OCO3)c2ccccc2S1(=O)=O` [Example 26, 4-Benzo[1,3]dioxol-5-yl-2-(2,6dimethyl-phenyl)-1,1-dioxo-1,2dihydro-1λ^6-benzo[e][1,2]thiazine-3-carboxylic acid]: the IC50 in test [1] was 17 nM; in test [2], > 25000 nM.

For the compound `CC(C)c1ccccc1N1C(C(=O)O)=C(c2ccc3c(c2)OCO3)c2ccccc2S1(=O)=O` [Example 15, 4-Benzo[1,3]dioxol-5-yl-2-(2isopropylphenyl)-1,1-dioxo 1,2-dihydro 1λ^6-benzo[e][1,2]thiazine-3-carboxylic acid], the IC50 in test [1] was 90 nM; in test [2] it was 11000 nM.

On to `Cc1noc(N2C(C(=O)O)=C(c3ccc4c(c3)OCO4)c3ccccc3S2(=O)=O)c1C` [Example 28], for which the 50% inhibitory concentration (IC50) is 90 nM in test [1] and > 25000 nM in test [2].

For `CCCCc1ccccc1N1C(C(=O)O)=C(c2ccc3c(c2)OCO3)c2ccccc2S1(=O)=O` [Example 16, 4-Benzo[1,3]dioxol-5-yl-2-(2butylphenyl)-1,1-dioxo-1,2-dihydro-1λ^6-benzo[e][1,2]thiazine-3-carboxylic acid], the IC50 in test [1] is 26 nM; in test [2] it was > 2500 nM.
